# Where “and” joins values, the source holds several entries; their conditions need not be identical. Identical values can stand only once.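 Assay format: 96-well plates, 48-hour exposure. GI50: concentration for 50% inhibition of growth. At the TGI there is no net growth.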
# Experiments:
# Assay in all cases: NCI tumour cell line growth inhibition, 48 h
# [1] = test system: DLD-1 colon
# [2] = test system: DMS 273 small cell lung
# [3] = test system: LXFL 529 NSCLC
# [4] = test system: RXF-631 renal
# [5] = test system: SNB-78 CNS
# [6] = test system: XF 498 CNS
# [7] = test system: MDA-MB-435
# [8] = test system: MDA-N
# [9] = test system: P388 leukemia
# [10] = test system: P388/ADR leukemia
# [11] = test system: SN12K1 renal
# [12] = test system: T-47D breast
smiles,measurement,setting,value
COC1=CC(=O)[C@]2(C)[C@H](C1=O)C(C)[C@H]2c1ccccc1 (stereo partly specified),TGI,[1],> 100 µM
same,TGI,[2],> 100 µM
same,TGI,[3],> 100 µM
same,TGI,[4],> 100 µM
same,TGI,[5],> 100 µM
same,TGI,[6],> 100 µM
COc1cc([C@@H]2OC(=O)C3C2C(=O)O[C@H]3c2cc(OC)c(OC)c(OC)c2)cc(OC)c1OC (stereo partly specified),TGI,[2],> 100 µM
same,TGI,[4],> 100 µM
same,TGI,[5],> 100 µM
same,TGI,[6],> 100 µM
Cc1ccc(N2C(=O)/C(=C/c3ccc(N(CCC#N)CCC#N)cc3C)N=C2c2cc([N+](=O)[O-])ccc2Cl)cc1,TGI,[1],> 100 µM
same,TGI,[2],> 100 µM
same,TGI,[3],> 100 µM
same,TGI,[4],> 100 µM
same,TGI,[5],> 100 µM
CC1=Nn2c(nnc2-c2ccc(N)cc2)NC(C)(C)C1,TGI,[1],> 100 µM
same,TGI,[2],> 100 µM
same,TGI,[3],> 100 µM
same,TGI,[4],> 100 µM
same,TGI,[5],> 100 µM
same,TGI,[6],> 100 µM
CC1(C)C2C/C(=C\c3ccccc3)C(=O)C1C2 (stereo unspecified),TGI,[1],> 100 µM
same,TGI,[2],> 100 µM
same,TGI,[3],> 100 µM
same,TGI,[4],> 100 µM
same,TGI,[5],> 100 µM
CC12CC3CC(C1)CC(N=[N+]=[N-])(C3)C2,TGI,[1],> 100 µM
same,TGI,[2],> 100 µM
same,TGI,[3],> 100 µM
same,TGI,[4],> 100 µM
same,TGI,[5],> 100 µM
same,TGI,[6],> 100 µM
O=C(/C=C1/NC(=O)CS1)Nc1ccccc1,TGI,[1],> 100 µM
same,TGI,[2],> 100 µM
same,TGI,[3],> 100 µM
same,TGI,[4],> 100 µM
same,TGI,[5],> 100 µM
same,TGI,[6],> 100 µM
[C-]#[N+]C(C)(C)C[C@H]1CC(C)C2CCC(C)C3([N+]#[C-])CCC(=C)C1[C@H]23 (stereo partly specified),TGI,[1],9.29 µM
same,TGI,[2],2.55 µM
same,TGI,[3],23.4 µM
same,TGI,[4],6.58 µM
same,TGI,[5],12 µM
same,TGI,[6],10.1 µM
CS/C(c1ccccc1)=[N+](/C)[O-],TGI,[1],> 100 µM
same,TGI,[3],> 100 µM
same,TGI,[4],> 100 µM
same,TGI,[5],> 100 µM
same,TGI,[6],> 100 µM
C=CCN=C1NC(=O)C(CC(=O)Nc2ccc(C)cc2)S1 (stereo unspecified),TGI,[1],> 100 µM
same,TGI,[2],> 100 µM
same,TGI,[3],> 100 µM
same,TGI,[4],> 100 µM
same,TGI,[6],> 100 µM
COc1cc(C(=O)CC2(O)C(=O)Nc3c(Cl)cc(Cl)cc32)ccc1O (stereo unspecified),TGI,[1],> 100 µM
same,TGI,[2],> 100 µM
same,TGI,[3],> 100 µM
same,TGI,[4],> 100 µM
same,TGI,[5],> 100 µM
same,TGI,[6],> 100 µM
COc1ccc2c(c1)CC1c3c(cc4c(c3-2)OCO4)CCN1C (stereo unspecified),TGI,[1],> 100 µM
same,TGI,[2],> 100 µM
same,TGI,[3],> 100 µM
same,TGI,[4],73.6 µM
same,TGI,[5],> 100 µM
same,TGI,[6],74 µM
CNc1nc(N(C)C)nc(N(C)C)n1,GI50,[1],> 100 µM and 822 µM
same,TGI,[1],> 100 µM and 4160 µM
same,GI50,[2],> 0.1 mM and 1.23 mM
same,TGI,[2],> 100 µM and 2740 µM
same,TGI,[3],> 100 µM
same,TGI,[7],4.42 mM
same,TGI,[8],2.85 mM
same,TGI,[9],1.53 mM
same,TGI,[10],1.8 mM
same,TGI,[11],2.62 mM
same,GI50,[5],> 0.1 mM and 1.78 mM
same,TGI,[5],> 100 µM and 5300 µM
same,TGI,[12],3.72 mM
same,GI50,[6],> 100 µM and 538 µM
same,TGI,[6],> 100 µM and 1720 µM

# Source: PubChem BioAssay (NCI)
